According to patent EP1482955B1, “PROPHYLACTIC AND THERAPEUTIC TREATMENT OF […] OTHER DISEASES WITH IMMU[…]” (CORIXA CORPORATION, priority 2002, dated 2003):

Tests used:
[1] = test system: L. monocytogenes 10403 serotype; test: Murine Listeria monocytogenes challenge model (induction of non-specific resistance); assay type: in vivo; conditions: mice, 1 µg intravenously in 0.2% TEOA two days before intravenous challenge with ~10^5 L. monocytogenes; spleen CFUs two days after challenge
Procedure: This example provides experiments evaluating the induction of non-specific resistance in the murine Listeria monocytogenes challenge model performed using the compounds prepared in examples 1, 2 and 3. Mice (5 per group) were treated intravenously with the 1 µg of a cyclic AGP or MPL solublized in 0.2% triethanolamine (TEOA). Two days later the mice were challenged intravenously with a ~10^5 L. monocytogenes 10403 serotype (stock culture provided by Jory Baldridge, Washington State University, Pullman, WA.). Two days after the challenge the mice were sacrificed and the number of colony forming units (CFUs) in the spleens of individual mice were determined by plating 10-fold serial dilutions of splenic homogenates on tryptic soy agar plates. The degree of protection afforded by a given AGP or MPL was calculated by subtracting the average number of bacteria per spleen (log10 value) in the group of mice treated with a given compound, from the average number of bacteria per spleen (log10 value) in a control group that was "sham" treated with vehicle (0.2% TEOA) prior to challenge with L. monocytogenes.

[2] = test system: Influenza A/HK/68; test: Protection against lethal influenza challenge by prophylactic intranasal administration; assay type: in vivo; conditions: BALB/c mice; for survival rate: 20 µg intranasally 48 hours prior to lethal intranasal challenge (5 LD50), followed 21 days; for protection when compared with the vehicle control: 20 µg intranasally 48 hours prior to challenge (5 LD50), judged by survival, clinical symptoms and prevention of weight loss for 21 days
Procedure: This example provides experiments evaluating protection against a lethal challenge with influenza in cyclic AGP-treated mice. BALB/c mice (10 mice per group) were treated intranasally with 20 µg of the compounds of examples 1, 2 and 3, or with MPL, 48 hours prior to an lethal intranasal challenge of Influenza A/HK/68 (5 LD50). Protection was judged by survival, observations of clinical symptoms (ruffled fur, hunched posture and labored breathing), and prevention of weight loss for 21 days following the challenge.

Row | Molecule | protection (average number of bacteria per spleen, log10 value, vehicle control group minus treated group) [1] | survival rate [2] | protection when compared with the vehicle control [2]
1 | N-[(R)-3-Tetradecanoyloxytetradecanoyl]-(S)-2-pyrrolidinylmethyl 2-Deoxy-4-O-phosphono-2-[(R)-3-tetradecanoyloxytetradecanoylamino]-3-O-[(R)-3-tetradecanoyloxytetradecanoyl]-β-D-glucopyranoside Triethylammonium Salt [Example 1] | 0.2 log 10 units | No mice | 
2 | CCCCCCCCCCCC(=O)O[C@H](CCCCCCCCCCC)CC(=O)N[C@H]1[C@H](OC[C@@H]2CCCN2C(=O)C[C@@H](CCCCCCCCCCC)OC(=O)CCCCCCCCCCC)O[C@H](CO)[C@@H](OP(=O)(O)O)[C@@H]1OC(=O)C[C@@H](CCCCCCCCCCC)OC(=O)CCCCCCCCCCC.CCN(CC)CC [Example 2, N-[(R)-3-Dodecanoyloxytetradecanoyl]-(S)-2-pyrrolidinylmethyl 2-Deoxy-4-O-phosphono-2-[(R)-3-dodecanoyloxy-tetradecanoylamino]-3-O-[(R)-3-dodecanoyloxytetradecanoyl]-β-D-glucopyranoside Triethylammonium Salt] | 0.7 log 10 units | 40% | enhanced protection
3 | CCCCCCCCCCC[C@H](CC(=O)N[C@H]1[C@H](OC[C@@H]2CCCN2C(=O)C[C@@H](CCCCCCCCCCC)OC(=O)CCCCCCCCC)O[C@H](CO)[C@@H](OP(=O)(O)O)[C@@H]1OC(=O)C[C@@H](CCCCCCCCCCC)OC(=O)CCCCCCCCC)OC(=O)CCCCCCCCC.CCN(CC)CC [Example 3, N-[(R)-3-Decanoyloxytetradecanoyl]-(S)-2-pyrrolidinylmethyl 2-Deoxy-4-O-phosphono-2-[(R)-3-Decanoyloxytetradecanoylamino]-3-O-[(R)-3-Decanoyloxytetradecanoyl]-β-D-glucopyranoside Triethylammonium Salt] | ~ 0.9 log 10 units | 60% | enhanced protection
